Reference: patent publication US20220031697A1, “Dose and regimen for an hdm2-p53 interaction inhibitor in hematological tumors” (Novartis AG, priority 2017, published 2022)
Like-named read-outs stand apart in the source and are kept apart here.

Assays:
[1] = system: advanced TP53 wild-type (WT) leukemias; assay type: in vivo, human
Clinical PK = assay type: in vivo, human
Method: Pharmacokinetic data have been evaluated throughout the course of the clinical study. […] Furthermore, an integrated analysis of all available HDM201 concentrations was conducted using a population approach. The PK of HDM201 was best described by a 1-compartment PK model with a delayed zero- and first-order absorption process, and a linear clearance. Body weight was identified as a statistically significant covariate on apparent central volume of distribution (Vc/F), in which Vc/F increased with increasing body weight.
To further support the 45 mg for HDM201, compartmental PK modeling was used to estimate the individual average concentration during cycle 1 for patients with hematological tumors treated at 45 mg on regimen 2C (FIG. 2). For all patients with measured PK, the estimated average drug concentrations during cycle 1 were above the most conservative average tumor stasis concentration of about 41 ng/mL per cycle determined from PKPD modeling of preclinical data (human SJSA-1 xenograft rat model).

[2] = Regimen 1A 250 mg, cut-off 15 Jan. 2018
[3] = Regimen 1A 250 mg, n=10, cut-off 15 Jan. 2018
[4] = Regimen 1B 120 mg, n=23, cut-off 15 Jan. 2018
[5] = Regimen 2C 45 mg, n=25, cut-off 15 Jan. 2018

COc1ncc(-c2nc3c(n2C(C)C)[C@H](c2ccc(Cl)cc2)N(c2cc(Cl)cn(C)c2=O)C3=O)c(OC)n1 [HDM201, (S)-5-(5-Chloro-1-methyl-2-oxo-1,2-dihydro-pyridin-3-yl)-6-(4-chloro-phenyl)-2-(2,4-dimethoxy-pyrimidin-5-yl)-1-isopropyl-5,6-dihydro-1H-pyrrolo[3,4-d]imidazol-4-one]
Count recovery time from C1D1 ([1]; CR patient, 1A 250 mg): 48 days | Duration of CR/CRi ([1]; CR patient, 1A 250 mg): 50 days | Time to CR/CRi ([1]; CR patient, 1A 250 mg): 7 weeks | Count recovery time from C1D1 ([1]; CR patient, 1A 400 mg): 40 days | Duration of CR/CRi ([1]; CR patient, 1A 400 mg): 23 days | Time to CR/CRi ([1]; CR patient, 1A 400 mg): 6 weeks | Count recovery time from C1D1 ([1]; CR patient, 2C 45 mg): 32 days | Duration of CR/CRi ([1]; CR patient, 2C 45 mg): 152 days | Time to CR/CRi ([1]; CR patient, 2C 45 mg): 5 weeks | Duration of CR/CRi ([1]; CRi patient, 1B 150 mg): 51 days | Time to CR/CRi ([1]; CRi patient, 1B 150 mg): 11 weeks | Duration of CR/CRi [1, 2]: 50 to 125 days | Time to CR/CRi [1, 2]: 24 to 50 days | CR (patients) [1, 3]: 1 | CRi (patients) [1, 3]: 1 | BOR: CR ([1]; Regimen 1A (n = 15)): 2 (13) n (%) | BOR: CRi ([1]; Regimen 1A (n = 15)): 0 (0) n (%) | ORR (CR + CRi + PR) ([1]; Regimen 1A (n = 15)): 2 (13) n (%) | Duration of CR/CRi ([1]; Regimen 1B 120 mg, DoR censored, cut-off 15 Jan. 2018): 1 day (DoR | Time to CR/CRi ([1]; Regimen 1B 120 mg, cut-off 15 Jan. 2018): 30 days | CR (patients) [1, 4]: 1 | CRi (patients) [1, 4]: 0 | BOR: CR ([1]; Regimen 1B (n = 6)): 0 (0) n (%) | BOR: CRi ([1]; Regimen 1B (n = 6)): 1 (17) n (%) | ORR (CR + CRi + PR) ([1]; Regimen 1B (n = 6)): 1 (17) n (%) | Clinical activity ([1]; Regimen 2A (2 weeks on/2 week off), doses up to 30 mg): without evidence of clinically meaningful activity | BOR: CR ([1]; Regimen 2A (n = 7)): 0 (0) n (%) | BOR: CRi ([1]; Regimen 2A (n = 7)): 0 (0) n (%) | ORR (CR + CRi + PR) ([1]; Regimen 2A (n = 7)): 0 (0) n (%) | Count recovery time of the patient with CR ([1]; Regimen 2C 45 mg): 32 days | Overall response rate ([1]; Regimen 2C 45 mg, 7 patients with post-baseline assessment): 57.1% | Time to CR/CRi ([1]; Regimen 2C 45 mg, cut-off 15 Jan. 2018): 34 to 49 days | CR (patients) [1, 5]: 2 | CRi (patients) [1, 5]: 4 | Duration of CRi ([1]; Regimen 2C 45 mg, one of three CRi patients): 40 days | Duration of complete response ([1]; Regimen 2C 45 mg, one patient): 152 days | BOR: CR ([1]; Regimen 2C (n = 7)): 1 (14) n (%) | BOR: CRi ([1]; Regimen 2C (n = 7)): 3 (43) n (%) | ORR (CR + CRi + PR) ([1]; Regimen 2C (n = 7)): 4 (57) n (%) | Best percentage change in blast percentage in bone marrow (BM) aspirate ([1]; Regimen 2C, AML patients, FIG. 1): strong efficacy | BOR: CR ([1]; Total (N = 35)): 3 (9) n (%) | BOR: CRi ([1]; Total (N = 35)): 4 (11) n (%) | ORR (CR + CRi + PR) ([1]; Total (N = 35)): 7 (20) n (%) | Estimated average drug concentration during cycle 1 (Clinical PK; 45 mg regimen 2C, all patients with measured PK, compartmental PK modeling): > 41 ng/mL | Dose proportionality of PK (AUClast and Cmax) (Clinical PK; over the dose range studied, preliminary assessment): approximately dose proportional
